Laboratory results from patent US10543215B2, “Combination therapy of cardiac myosin activator and sinus node if current inhibitor” (AMGEN INC., priority 2015, dated 2020).

Test system: conscious telemetered beagle dogs
Assay: Left-ventricular hemodynamic, mechanical and timing indices by radio-telemetry before and during IV OM or vehicle, on repeated oral IVA or placebo
Assay type: in vivo, beagle dog
Method: Healthy male beagle dogs (n=7) instrumented with radio-telemetry units providing continuous single-lead electrocardiogram (ECG), as well as systemic (arterial, AoP) and left-ventricular (LVP) pressure signals were used for this study. Following sling acclimation, the animals were assigned to receive repeated oral (via gavage) treatments with either Ivabradine (IVA, 5 mg/kg bid) or a volume-matched placebo-control (sterile water, CTRL) for 5 days, administered at a dose volume of 10 mL/kg, in a cross over design.
The animals were sling-restrained and were subjected to acute intravenous administration of either sterile water (VEH, on Days 4 and 11 of dosing) or Omecamtiv Mecarbil (OM, on Days 5 and 12 of dosing). OM treatments were performed over a 3-hour infusion duration, following a dose-escalation design targeting plasma concentrations of 600 and 1000 ng/mL (each over 90 minutes, with a 30 minute loading infusion followed by a 60 minute maintenance infusion) for a cumulative dose of 5.293 mg/kg (as shown in Table A below). The IV vehicle treatments were time- and volume-matched.
Telemetered data were collected continuously for at least 90 minutes prior to and during dosing, as well as for at least 20 hours post-dose. The LVP and ECG signals were digitized at a sampling rate of at least 1000 Hz. The data were analyzed for heart rate (HR) and left-ventricular hemodynamic/mechanical indices that were obtained from the pressure waveform, including mean systolic (MSP) and end-diastolic (filling, EDP) pressures, the peak rates of pressure change during systole/diastole (dP/dtmax/min), as well as the time-constant of relaxation (tau) and a contractility index (CI: dP/dtmax normalized by the pressure at dP/dtmax). The data were also analyzed for systolic and diastolic intervals, including the estimated durations of the systolic ejection (SET), contraction (CT), active relaxation (RT) and filling intervals (FT), as well as the systolic-to-diastolic interval ratio (S/D: SET/RT+FT), which were derived from the left-ventricular pressure waveform.
The left-ventricular indices were evaluated only in the sling-restrained animals before and during IV treatment with OM or vehicle. Cardiovascular responses at each dose level were monitored for up to 90 minutes, i.e., over 3 hours total (during IV dosing of VEH and OM on Days 4, 5, 11, and 12 in the dose administration paradigm). Overall, in-sling cardiovascular data are reported at the following pre-determined/targeted time points: prior to dosing (i.e., at baseline, PRE) and approximately at the end of each infusion period (i.e., up to 4 time points during dosing, D1 to D4). Signals were analyzed continuously in 5-minute epochs, with pre-administration (i.e., PRE) values representing the overall mean over at least 5-epochs (i.e., 25 minutes) taken immediately prior to the onset of dosing, while during-dosing values reflect 5-minute averages (i.e., 1 epoch) taken prior to the (estimated) termination of each infusion. Data are presented as both means with standard deviations in summarizing tables/figure; beat-to-beat plots against heart rate are part of the study file.

[1] = D1, end of 30-min loading infusion, target OM 600 ng/mL
[2] = D2, end of 60-min maintenance infusion, target OM 600 ng/mL
[3] = D3, end of 30-min loading infusion, target OM 1000 ng/mL
[4] = D4, end of 60-min maintenance infusion, target OM 1000 ng/mL
[5] = PRE, before IV dosing (baseline)
[6] = baseline after repeated oral IVA 5 mg/kg bid, mean pre-dosing averages across study days
[7] = baseline after repeated oral IVA 5 mg/kg bid, vs. placebo-control

## COc1cc2c(cc1OC)CC(=O)N(CCCN(C)C[C@H]1Cc3cc(OC)c(OC)cc31)CC2 [IVA]
[1]
  CT % vs. PRE: 4%
  CT (contraction time): 63.8 ms
  EDP % vs. PRE: −10%
  EDP (left-ventricular end-diastolic pressure): 14.4 mmHg
  FT % vs. PRE: 11%
  FT (filling time): 586 ms
  HR % vs. PRE: −9%
  HR (heart rate): 76 bpm
  MSP % vs. PRE: 0%
  MSP (left-ventricular mean systolic pressure): 138 mmHg
  RT % vs. PRE: 1%
  RT (relaxation time): 88 ms
  S/D % vs. PRE: −4%
  S/D (systolic to diastolic ratio, SET/RT + FT): 0.2
  SET % vs. PRE: 4%
  SET (systolic ejection time): 161 ms
  Tau % vs. PRE: 3 ± 2%
  Tau (left-ventricular relaxation time-constant): 28.7 ± 1.7 ms
  Vmax % vs. PRE: 0 ± 1%
  Vmax (estimated maximal velocity of myocardial contractile-element shortening): 36.9 ± 1.3 s⁻¹
  dP/dtmax % vs. PRE: −2%
  dP/dtmax (peak rate of LV pressure change during systole): 2,606 mmHg/s
  dP/dtmin % vs. PRE: −2%
  dP/dtmin (peak rate of LV pressure change during diastole): −2,365 mmHg/s
[2]
  CT % vs. PRE: 9%
  CT (contraction time): 67.2 ms
  EDP % vs. PRE: 0%
  EDP (left-ventricular end-diastolic pressure): 15.3 mmHg
  FT % vs. PRE: 8%
  FT (filling time): 571 ms
  HR % vs. PRE: −9%
  HR (heart rate): 76 bpm
  MSP % vs. PRE: 5%
  MSP (left-ventricular mean systolic pressure): 145 mmHg
  RT % vs. PRE: 4%
  RT (relaxation time): 90 ms
  S/D % vs. PRE: 0%
  S/D (systolic to diastolic ratio, SET/RT + FT): 0.25
  SET % vs. PRE: 6%
  SET (systolic ejection time): 163 ms
  Tau % vs. PRE: 6 ± 2%
  Tau (left-ventricular relaxation time-constant): 29.3 ± 1.0 ms
  Vmax % vs. PRE: −1 ± 1%
  Vmax (estimated maximal velocity of myocardial contractile-element shortening): 36.7 ± 0.8 s⁻¹
  dP/dtmax % vs. PRE: 2%
  dP/dtmax (peak rate of LV pressure change during systole): 2,704 mmHg/s
  dP/dtmin % vs. PRE: 4%
  dP/dtmin (peak rate of LV pressure change during diastole): −2,492 mmHg/s
[3]
  CT % vs. PRE: 6%
  CT (contraction time): 64.9 ms
  EDP % vs. PRE: −4%
  EDP (left-ventricular end-diastolic pressure): 14.5 mmHg
  FT % vs. PRE: 24%
  FT (filling time): 651 ms
  HR % vs. PRE: −17%
  HR (heart rate): 69 bpm
  MSP % vs. PRE: 3%
  MSP (left-ventricular mean systolic pressure): 143 mmHg
  RT % vs. PRE: 6%
  RT (relaxation time): 92 ms
  S/D % vs. PRE: −8%
  S/D (systolic to diastolic ratio, SET/RT + FT): 0.23
  SET % vs. PRE: 8%
  SET (systolic ejection time): 167 ms
  Tau % vs. PRE: 5 ± 3%
  Tau (left-ventricular relaxation time-constant): 29.2 ± 1.0 ms
  Vmax % vs. PRE: 1 ± 2%
  Vmax (estimated maximal velocity of myocardial contractile-element shortening): 37.2 ± 0.7 s⁻¹
  dP/dtmax % vs. PRE: 0%
  dP/dtmax (peak rate of LV pressure change during systole): 2,662 mmHg/s
  dP/dtmin % vs. PRE: 1%
  dP/dtmin (peak rate of LV pressure change during diastole): −2,425 mmHg/s
[4]
  CT % vs. PRE: 11%
  CT (contraction time): 67.9 ms
  EDP % vs. PRE: −9%
  EDP (left-ventricular end-diastolic pressure): 14.2 mmHg
  FT % vs. PRE: 9%
  FT (filling time): 577 ms
  HR % vs. PRE: −12%
  HR (heart rate): 74 bpm
  MSP % vs. PRE: 4%
  MSP (left-ventricular mean systolic pressure): 143 mmHg
  RT % vs. PRE: 5%
  RT (relaxation time): 91 ms
  S/D % vs. PRE: 0%
  S/D (systolic to diastolic ratio, SET/RT + FT): 0.25
  SET % vs. PRE: 7%
  SET (systolic ejection time): 165 ms
  Tau % vs. PRE: 3 ± 2%
  Tau (left-ventricular relaxation time-constant): 28.8 ± 1.5 ms
  Vmax % vs. PRE: 1 ± 1%
  Vmax (estimated maximal velocity of myocardial contractile-element shortening): 37.3 ± 1.0 s⁻¹
  dP/dtmax % vs. PRE: 2%
  dP/dtmax (peak rate of LV pressure change during systole): 2,702 mmHg/s
  dP/dtmin % vs. PRE: 2%
  dP/dtmin (peak rate of LV pressure change during diastole): −2,457 mmHg/s
[5]
  CT (contraction time): 61.4 ± 0.6 ms
  EDP (left-ventricular end-diastolic pressure): 15.7 mmHg
  FT (filling time): 535 ± 46 ms
  HR (heart rate): 85 bpm
  MSP (left-ventricular mean systolic pressure): 138 mmHg
  RT (relaxation time): 87 ± 1 ms
  S/D (systolic to diastolic ratio, SET/RT + FT): 0.26
  SET (systolic ejection time): 155 ± 2 ms
  Tau (left-ventricular relaxation time-constant): 27.9 ± 1.4 ms
  Vmax (estimated maximal velocity of myocardial contractile-element shortening): 37.1 ± 1.1 s⁻¹
  dP/dtmax (peak rate of LV pressure change during systole): 2,661 mmHg/s
  dP/dtmin (peak rate of LV pressure change during diastole): −2,407 mmHg/s
[6]
  CT: 61 ± 1 ms
  FT: 577 ± 49 ms
  HR: 82 ± 5 bpm
  LV-EDP: 16 ± 2 mmHg
  LV-MSP: 137 ± 3 mmHg
  LV-Tau: 28.5 ± 1.4 ms
  LV-Vmax: 37.0 ± 1.0 s⁻¹
  LV-dP/dtmax: 2,644 ± 79 mmHg/s
  LV-dP/dtmin: −2,367 ± 91 mmHg/s
  RT: 88 ± 1 ms
  S/D: 0.24 ± 0.01
  SET: 157 ± 2 ms
[7]
  CT change vs. CTRL: (−9 ± 1) %
  LV-MSP change vs. CTRL: (4 ± 2) %
  LV-Tau change vs. CTRL: (−3 ± 3) %
  LV-Vmax change vs. CTRL: (5 ± 3) %
  LV-dP/dtmin change vs. CTRL: (8 ± 3) %
  RT change vs. CTRL: (−2 ± 2) %
  SET change vs. CTRL: (4 ± 2) %
